Reference: patent US20200390100A1, “SUBSTITUTED N-HETEROCYCLYL- AND N-HETEROARYL-TETRAHYDROPYRIMIDINONES AND THE SALTS THEREOF, AND THE USE OF SAME AS HERBICIDAL ACTIVE SUBSTANCES” (Bayer Aktiengesellschaft, priority 2017, published 2020)

Assays:
Assay type in all cases: in vivo
Stellaria media [1] = test: Herbicidal post-emergence action (Part 2), 1280 g/ha; conditions: application rate 1280 g/ha, rated visually after about 3 weeks, Table C7
Protocol: (§1) Seeds of mono- and dicotyledonous weed plants were placed in plastic pots in sandy loam soil (doubly sown with in each case one species of mono- or dicotyledonous weed plants per pot), covered with soil and cultivated in a greenhouse under controlled growth conditions. 2 to 3 weeks after sowing, the test plants were treated at the one-leaf stage. The compounds of the invention, formulated in the form of wettable powders (WP) or as emulsion concentrates (EC), were applied onto the green parts of the plants as aqueous suspension or emulsion with addition of 0.5% additive at a water application rate of 600 liters per hectare (converted). After the test plants had been kept in the greenhouse under optimum growth conditions for about 3 weeks, the activity of the preparations was rated visually in comparison to untreated controls. For example, 100% activity=the plants have died, 0% activity=like control plants. Tables C1 to C7 below show the effects of selected compounds of the general formula (I) according to Tables 1.1 to 1.150 on various harmful plants and at an application rate corresponding to 1280 g/ha, which were obtained by the experimental procedure mentioned above.

Poa annua [2] = test: as above; conditions: application rate 1280 g/ha, rated visually after about 3 weeks, Table C2
Protocol: as §1

Amaranthus retroflexus [3] = test: as above; conditions: application rate 1280 g/ha, rated visually after about 3 weeks, Table C5
Protocol: as §1

Matricaria inodora [4] = test: as above; conditions: application rate 1280 g/ha, rated visually after about 3 weeks, Table C6
Protocol: as §1

Stellaria media [5] = test: Herbicidal pre-emergence action (Part 2), 1280 g/ha; conditions: application rate 1280 g/ha, scored visually after about 3 weeks, Table D8
Description: (§2) Seeds of mono- and dicotyledonous weed plants were placed in plastic pots in sandy loam soil (doubly sown with in each case one species of mono- or dicotyledonous weed plants per pot) and covered with soil. The compounds of the invention, formulated in the form of wettable powders (WP) or as emulsion concentrates (EC), were then applied onto the surface of the covering soil as aqueous suspension or emulsion with addition of 0.5% additive at a water application rate of 600 liters per hectare (converted). After the treatment, the pots were placed in a greenhouse and kept under good growth conditions for the test plants. After about 3 weeks, the effect of the preparations was scored visually in comparison with untreated controls as percentages. For example, 100% activity=the plants have died, 0% activity=like control plants. Tables D1 to D8 below show the effects of selected compounds of the general formula (I) according to Tables 1.1 to 1.150 on various harmful plants and at an application rate corresponding to 1280 g/ha, which were obtained by the experimental procedure mentioned above.

Poa annua [6] = test: as above; conditions: application rate 1280 g/ha, scored visually after about 3 weeks, Table D3
Description: as §2

Setaria viridis [7] = test: as above; conditions: application rate 1280 g/ha, scored visually after about 3 weeks, Table D4
Description: as §2

Amaranthus retroflexus [8] = test: as above; conditions: application rate 1280 g/ha, scored visually after about 3 weeks, Table D6
Description: as §2

Echinochloa crus-galli = test: as above; conditions: application rate 1280 g/ha, scored visually after about 3 weeks, Table D1
Description: as §2

Matricaria inodora [9] = test: as above; conditions: application rate 1280 g/ha, scored visually after about 3 weeks, Table D7
Description: as §2

Abutilon theophrasti [10] = test: as above; conditions: application rate 1280 g/ha, scored visually after about 3 weeks, Table D5
Description: as §2

Stellaria media [11] = test: Pre-emergence herbicidal action, greenhouse, 320 g/ha; conditions: application rate 320 g/ha, scored visually after about 3 weeks vs untreated controls
Description: (§3) Seeds of monocotyledonous and dicotyledonous weed plants and crop plants were placed in plastic or organic planting pots and covered with soil. The compounds of the invention, formulated in the form of wettable powders (WP) or as emulsion concentrates (EC), were then applied to the surface of the covering soil as aqueous suspension or emulsion with addition of 0.5% additive at a water application rate equivalent to […]. After the treatment, the pots were placed in a greenhouse and kept under good growth conditions for the test plants. After about 3 weeks, the effect of the preparations is scored visually in comparison with untreated controls as percentages. For example, 100% activity=the plants have died, 0% activity=like control plants. Tables B1 to B14 below show the effects of selected compounds of the general formula (I) according to Tables I.1 to I.150 on various harmful plants and at an application rate corresponding to 320 g/ha, which were obtained by the experimental procedure mentioned above.

Polygonum convolvulus = test: as above; conditions: application rate 320 g/ha, scored visually after about 3 weeks vs untreated controls
Description: as §3

Avena fatua = test: as above; conditions: application rate 320 g/ha, scored visually after about 3 weeks vs untreated controls
Description: as §3

Setaria viridis [12] = test: as above; conditions: application rate 320 g/ha, Table B11
Description: as §3

Amaranthus retroflexus [13] = test: as above; conditions: application rate 320 g/ha, scored visually after about 3 weeks vs untreated controls
Description: as §3

Matricaria inodora [14] = test: as above; conditions: application rate 320 g/ha, scored visually after about 3 weeks vs untreated controls
Description: as §3

Alopecurus myosuroides = test: as above; conditions: application rate 320 g/ha, scored visually after about 3 weeks vs untreated controls
Description: as §3

Abutilon theophrasti [15] = test: as above; conditions: application rate 320 g/ha, scored visually after about 3 weeks vs untreated controls
Description: as §3

Veronica persica = test: as above; conditions: application rate 320 g/ha, Table B13
Description: as §3

Viola tricolor [16] = test: as above; conditions: application rate 320 g/ha, Table B8
Description: as §3

Pharbitis purpurea = test: as above; conditions: application rate 320 g/ha, Table B12
Description: as §3

Digitaria sanguinalis = test: as above; conditions: application rate 320 g/ha, Table B9
Description: as §3

Stellaria media [17] = test: Post-emergence herbicidal action, greenhouse, 320 g/ha; conditions: application rate 320 g/ha, rated visually after about 3 weeks vs untreated controls
Protocol: (§4) Seeds of monocotyledonous and dicotyledonous weeds and crop plants were placed in sandy loam in plastic or wood-fiber pots, covered with soil and cultivated in a greenhouse under controlled growth conditions. 2 to 3 weeks after sowing, the test plants were treated at the one-leaf stage. The compounds of the invention, formulated in the form of wettable powders (WP) or as emulsion concentrates (EC), were then sprayed onto the green parts of the plants as aqueous suspension or emulsion with addition of 0.5% additive at a water application rate of […] (converted). After the test plants had been kept in the greenhouse under optimum growth conditions for about 3 weeks, the activity of the preparations was rated visually in comparison to untreated controls. For example, 100% activity=the plants have died, 0% activity=like control plants. Tables A1 to A14 below show the effects of selected compounds of the general formula (I) according to Tables 1.1 to 1.150 on various harmful plants and at an application rate corresponding to 320 g/ha, which were obtained by the experimental procedure mentioned above.

Amaranthus retroflexus [18] = test: as above; conditions: application rate 320 g/ha, rated visually after about 3 weeks vs untreated controls
Protocol: as §4

Viola tricolor [19] = test: as above; conditions: application rate 320 g/ha, rated visually after about 3 weeks vs untreated controls
Protocol: as §4

Hordeum murinum = test: Pre-emergence herbicidal action, greenhouse, 320 g/ha; conditions: application rate 320 g/ha, Table B14
Description: as §3

Row | Structure (SMILES) | Stellaria media (Stellaria media [1]) | Poa Annua (Poa annua [2]) | Amaranthus retroflexus (Amaranthus retroflexus [3]) | Matricaria inodora (Matricaria inodora [4]) | Stellaria media (Stellaria media [5]) | Poa Annua (Poa annua [6]) | Amaranthus retroflexus (Amaranthus retroflexus [8]) | Echinochloa crus-galli (Echinochloa crus-galli) | Matricaria inodora (Matricaria inodora [9]) | Abutilon theophrasti (Abutilon theophrasti [10]) | Stellaria media (efficacy in %) (Stellaria media [11]) | Polygonum convolvulus (efficacy in %) (Polygonum convolvulus) | Amaranthus retroflexus (efficacy in %) (Amaranthus retroflexus [13]) | Matricaria inodora (efficacy in %) (Matricaria inodora [14]) | Alopecurus myosuroides (efficacy in %) (Alopecurus myosuroides) | Abutilon theophrasti (efficacy in %) (Abutilon theophrasti [15]) | Viola tricolor (efficacy in %) (Viola tricolor [16]) | other results
1 | CC(=O)OC1CCN(C)C(=O)N1c1cc(C(C)(C)C)no1 (stereo not shown) [I.2-290, 3-(3-tert-Butyl-1,2-oxazol-5-yl)-1-methyl-2-oxohexahydropyrimidin-4-yl Acetate] | 100% | 90% | 100% | 90% | 100% | 100% | 100% | 90% | 100% | 100% |  |  |  |  |  |  |  | Setaria viridis (Setaria viridis [7]): 90%
2 | CCCC(=O)OC1N(c2cc(C(C)(C)C)on2)C(=O)N(C)CC1(C)C (stereo not shown) [I.66-162] |  | 90% | 100% |  |  | 100% | 90% | 90% | 100% | 100% |  |  |  |  |  |  |  | 
3 | CCC(=O)OC1N(c2cc(C(C)(C)C)on2)C(=O)N(C)CC1(C)C (stereo not shown) [I.63-162] | 100% |  | 100% | 100% | 100% | 100% | 100% |  | 90% | 100% |  |  |  |  |  |  |  | 
4 | CN1CCC(O)N(c2cc(C(F)(F)F)c(Br)cn2)C1=O (stereo not shown) [I.1-464] |  |  |  |  |  |  |  |  |  |  | 100% | 100% | 100% | 100% | 80% | 100% | 100% | Avena fatua (efficacy in %) (Avena fatua): 80%; Setaria viridis (efficacy in %) (Setaria viridis [12]): 100%; Veronica persica (efficacy in %) (Veronica persica): 100%; Pharbitis purpurea (efficacy in %) (Pharbitis purpurea): 100%; Digitaria sanguinalis (efficacy in %) (Digitaria sanguinalis): 100%; Stellaria media (efficacy in %) (Stellaria media [17]): 90%; Amaranthus retroflexus (efficacy in %) (Amaranthus retroflexus [18]): 100%; Viola tricolor (efficacy in %) (Viola tricolor [19]): 100%
5 | CC(=O)OC1N(c2cc(C(C)(C)C)on2)C(=O)N(C)CC12CCC2 (stereo not shown) [I.82-162] |  | 90% | 100% |  | 90% | 100% | 100% |  | 100% |  |  |  |  |  |  |  |  | 
6 | C=CCC(C)(C)c1cc(N2C(=O)N(C)CCC2O)no1 (stereo not shown) [I.1-199] |  |  |  |  |  |  |  |  |  |  | 100% | 90% | 100% | 100% | 90% | 100% | 100% | Hordeum murinum (efficacy in %) (Hordeum murinum): 80%
